Experiment: mn = molality of the nth substance listed, in mol/kg
Details: 101 kPa, Liquid; for electrical conductivity: Alternating current cell with electrodes; for viscosity: Falling or rolling sphere viscometry; for mass density: Vibrating tube method

F[B-](F)(F)F.[Na+] [sodium tetrafluoroborate] + CCCCn1cc[n+](C)c1.F[B-](F)(F)F
Details | electrical conductivity [S/m] | mass density [kg/m3] | viscosity [mPa·s]
238.15 K, m1 = 0.058 | 0.00083 | – | –
238.15 K, m1 = 0.1159 | 0.00077 | – | –
238.15 K, m1 = 0.1739 | 0.00071 | – | –
258.15 K, m1 = 0.058 | 0.0211 | – | –
258.15 K, m1 = 0.1159 | 0.0201 | – | –
258.15 K, m1 = 0.1739 | 0.0188 | – | –
278.15 K, m1 = 0.0273 | – | 1218 | –
278.15 K, m1 = 0.054 | – | 1219.4 | –
278.15 K, m1 = 0.058 | 0.1075 | 1219.2 | 400.2
278.15 K, m1 = 0.0676 | – | 1220.7 | –
278.15 K, m1 = 0.0903 | – | 1221.3 | –
278.15 K, m1 = 0.1069 | – | 1222.4 | –
278.15 K, m1 = 0.1159 | 0.103 | 1222.8 | 421.4
278.15 K, m1 = 0.1377 | – | 1224.3 | –
278.15 K, m1 = 0.1739 | 0.0986 | 1226.2 | 454.8
288.15 K, m1 = 0.0273 | – | 1210.7 | –
288.15 K, m1 = 0.054 | – | 1212.2 | –
288.15 K, m1 = 0.058 | – | 1212.1 | 204.4
288.15 K, m1 = 0.0676 | – | 1213.4 | –
288.15 K, m1 = 0.0903 | – | 1214 | –
288.15 K, m1 = 0.1069 | – | 1215.1 | –
288.15 K, m1 = 0.1159 | – | 1215.5 | 215.5
288.15 K, m1 = 0.1377 | – | 1217 | –
288.15 K, m1 = 0.1739 | – | 1218.9 | 232.6
298.15 K, m1 = 0.0273 | – | 1203.5 | –
298.15 K, m1 = 0.054 | – | 1204.9 | –
298.15 K, m1 = 0.058 | 0.341 | 1205 | 115.5
298.15 K, m1 = 0.0676 | – | 1206.1 | –
298.15 K, m1 = 0.0903 | – | 1206.8 | –
298.15 K, m1 = 0.1069 | – | 1207.9 | –
298.15 K, m1 = 0.1159 | 0.328 | 1208.3 | 121.4
298.15 K, m1 = 0.1377 | – | 1209.8 | –
298.15 K, m1 = 0.1739 | 0.316 | 1211.6 | 130.4
308.15 K, m1 = 0.0273 | – | 1196.3 | –
308.15 K, m1 = 0.054 | – | 1197.7 | –
308.15 K, m1 = 0.058 | – | 1198 | 70.66
308.15 K, m1 = 0.0676 | – | 1199 | –
308.15 K, m1 = 0.0903 | – | 1199.6 | –
308.15 K, m1 = 0.1069 | – | 1200.7 | –
308.15 K, m1 = 0.1159 | – | 1201.1 | 74.52
308.15 K, m1 = 0.1377 | – | 1202.6 | –
308.15 K, m1 = 0.1739 | – | 1204.4 | 79.37
318.15 K, m1 = 0.0273 | – | 1189.2 | –
318.15 K, m1 = 0.054 | – | 1190.7 | –
318.15 K, m1 = 0.058 | 0.794 | 1190.9 | 46.1
318.15 K, m1 = 0.0676 | – | 1191.9 | –
318.15 K, m1 = 0.0903 | – | 1192.5 | –
318.15 K, m1 = 0.1069 | – | 1193.6 | –
318.15 K, m1 = 0.1159 | 0.769 | 1194 | 48.94
318.15 K, m1 = 0.1377 | – | 1195.5 | –
318.15 K, m1 = 0.1739 | 0.745 | 1197.3 | 51.72
328.15 K, m1 = 0.0273 | – | 1182.2 | –
328.15 K, m1 = 0.054 | – | 1183.6 | –
328.15 K, m1 = 0.058 | – | 1183.9 | 31.69
328.15 K, m1 = 0.0676 | – | 1184.9 | –
328.15 K, m1 = 0.0903 | – | 1185.5 | –
328.15 K, m1 = 0.1069 | – | 1186.6 | –
328.15 K, m1 = 0.1159 | – | 1187 | 33.98
328.15 K, m1 = 0.1377 | – | 1188.4 | –
328.15 K, m1 = 0.1739 | – | 1190.3 | 35.69
338.15 K, m1 = 0.0273 | – | 1175.3 | –
338.15 K, m1 = 0.054 | – | 1177 | –
338.15 K, m1 = 0.058 | 1.5 | 1176.8 | 22.75
338.15 K, m1 = 0.0676 | – | 1177.9 | –
338.15 K, m1 = 0.0903 | – | 1178.6 | –
338.15 K, m1 = 0.1069 | – | 1179.6 | –
338.15 K, m1 = 0.1159 | 1.464 | 1180 | 23.85
338.15 K, m1 = 0.1377 | – | 1181.5 | –
338.15 K, m1 = 0.1739 | 1.425 | 1183.3 | 23.94
348.15 K, m1 = 0.0273 | – | 1168.4 | –
348.15 K, m1 = 0.054 | – | 1169.8 | –
348.15 K, m1 = 0.058 | – | 1169.8 | 16.93
348.15 K, m1 = 0.0676 | – | 1171 | –
348.15 K, m1 = 0.0903 | – | 1171.7 | –
348.15 K, m1 = 0.1069 | – | 1172.7 | –
348.15 K, m1 = 0.1159 | – | 1173.1 | 17.63
348.15 K, m1 = 0.1377 | – | 1174.6 | –
348.15 K, m1 = 0.1739 | – | 1176.4 | 17.97
358.15 K, m1 = 0.0273 | – | 1161.6 | –
358.15 K, m1 = 0.054 | – | 1163 | –
358.15 K, m1 = 0.058 | 2.47 | 1162.7 | 13
358.15 K, m1 = 0.0676 | – | 1164.2 | –
358.15 K, m1 = 0.0903 | – | 1164.8 | –
358.15 K, m1 = 0.1069 | – | 1165.9 | –
358.15 K, m1 = 0.1159 | 2.4 | 1166.3 | 13.53
358.15 K, m1 = 0.1377 | – | 1167.7 | –
358.15 K, m1 = 0.1739 | 2.35 | 1169.6 | 14.01
378.15 K, m1 = 0.058 | 3.66 | – | –
378.15 K, m1 = 0.1159 | 3.57 | – | –
378.15 K, m1 = 0.1739 | 3.5 | – | –
398.15 K, m1 = 0.058 | 5.04 | – | –
398.15 K, m1 = 0.1159 | 4.93 | – | –
398.15 K, m1 = 0.1739 | 4.84 | – | –
418.15 K, m1 = 0.058 | 6.58 | – | –
418.15 K, m1 = 0.1159 | 6.45 | – | –
418.15 K, m1 = 0.1739 | 6.35 | – | –
438.15 K, m1 = 0.058 | 8.24 | – | –
438.15 K, m1 = 0.1159 | 8.11 | – | –
438.15 K, m1 = 0.1739 | 7.98 | – | –
458.15 K, m1 = 0.058 | 10 | – | –
458.15 K, m1 = 0.1159 | 9.85 | – | –
458.15 K, m1 = 0.1739 | 9.7 | – | –

Reference: the NIST ThermoML archive (doi:10.1021/je300603d)
